{"source": "patent US20150344978A1", "about": "“NICOTINE RESISTANT MICROORGANISMS” (priority 2014, published 2015)", "key": {"[1]": {"test_system": "nicotine resistant yeast strain", "experimental": "(§1) In the method, the X-PRESS yeast strain was subjected to a number of selection cycles to generate nicotine resistance. First, the X-PRESS yeast strain was cultured in liquid media (YP medium containing yeast extract (5 g/L); peptone (10 g/L)) to which 1% w/v (10 mg/ml) nicotine was added for 72 hr at 27° C. with shaking 200 rpm. […] After 72 hr, 100 μl of the culture was applied to a 1% w/v nicotine YP agar plate and allowed to grow on the plate at 27° C. for another 72 hr. In the next step, a single colony was inoculated into a 1.5% w/v nicotine YP medium solution and incubated for another 72 hr and the entire process was repeated. This process was repeated multiple times with the concentration of nicotine being increased in increments of 0.5% w/v at each cycle. […] In FIGS. 3A & 3B, the yeast strains were inoculated onto a nicotine-containing culture plate (nicotine 50 mg/ml, yeast extract 5 g/L, peptone 10 g/L and agar 15 g/L) and incubated at 27° C. for 3 days.\nTo ensure the stability of the nicotine resistance trait, an additional 20 generations of the resistant strain were cultured in the 7.5% w/v nicotine nutrient solution. […] This nicotine resistant Saccharomyces cerevisiae yeast strain was deposited on under the terms of the Budapest Treaty on the International Recognition of the Deposit of Microorganisms for the Purposes of Patent Procedure at the American Type Culture Collection (ATCC) in Manassas, Va., USA and bears the Patent Accession No. ______."}, "[2]": {"test_system": "X-PRESS yeast strain", "experimental": "as §1"}, "[3]": {"test_system": "yeast"}}}
{"smiles": "CN1CCCC1c1cccnc1", "note": "(centres unmarked) [nicotine]", "values": [{"measurement": "growth of nicotine resistant strain in medium", "setting": "[1]", "value": "capable of growing"}, {"measurement": "growth of nicotine resistant yeast", "setting": "[1]", "value": "still able to grow"}, {"measurement": "growth of nicotine resistant yeast on nicotine-containing culture plate", "setting": "[1]", "value": "grew well"}, {"measurement": "effect on growth of X-PRESS yeast in liquid YP medium", "setting": "[2]; 1% w/v (10 mg/ml) nicotine, 72 hr, 27° C., shaking 200 rpm", "value": "inhibited the growth rate, but did not kill the yeast"}, {"measurement": "growth of X-PRESS yeast on nicotine-containing culture plate", "setting": "[2]; nicotine 50 mg/ml, yeast extract 5 g/L, peptone 10 g/L, agar 15 g/L, 27° C., 3 days", "value": "No yeast growth could be observed"}, {"measurement": "survival of X-PRESS yeast colonies", "setting": "[2]; nicotine concentration of 7.5%", "value": "no surviving yeast colonies"}, {"measurement": "less ethanol production expected", "setting": "[3]; in the presence of 0.5% nicotine", "value": 21, "unit": "%"}, {"measurement": "less sugar consumption by yeast", "setting": "[3]; nicotine 5 mg/ml added into fermentation solution (FIG. 1)", "value": 21, "unit": "%"}]}
